Columns and labels:
Assay type in all cases: in vivo
Settings in all cases: 20 DAT
[1] = test system: ABUTH (Abutilon theoprasti); experiment: Greenhouse preemergence herbicidal activity, ABUTH
Method: (§1) The test plants have been seeded, separately for each species, in plastic containers in sandy loamy soil containing 5% of organic matter.
(§2) The containers were irrigated gently to promote germination and growth and subsequently covered with transparent plastic hoods until the plants had rooted.
(§3) The plants have been cultivated due to their individual requirements at 10-25° C. and 20-35° C. The plants were irrigated due to their necessity.
(§4) The racemic mixture (±)-2-exo-(2-Methylbenzyloxy)-1-methyl-4-isopropyl-7-oxabicyclo[2.2.1]heptane was used as herbicide A and formulated as emulsifiable concentrates with an active ingredient concentration of 50 g/l, 100 g/l or 750 g/l respectively.
(§5) Pyroxasulfone (herbicide B) was used as a water dispersible granule (85% WG).
(§6) In the following experiments, the herbicidal activity for the individual herbicidal compositions (solo and mixture applications) was assessed 20 days after treatment (DAT).
(§7) The evaluation for the damage on undesired weeds caused by the chemical compositions was carried out using a scale from 0 to 100%, compared to the untreated control plants. Here, 0 means no damage and 100 means complete destruction of the plants.
(§8) E=X+Y−(X·Y/100) where X=effect in percent using herbicide A at an application rate a; • Y=effect in percent using herbicide B at application rate b; • E=expected effect (in %) of herbicide A+herbicide B at application rates a+b.
(§9) The value E corresponds to the effect (plant damage or injury) which is to be expected if the activity of the individual compounds is additive. If the observed effect is higher than the value E calculated according to the Colby equation, a synergistic effect is present.

[2] = test system: AMARE (Amaranthus retroflexus); experiment: Greenhouse preemergence herbicidal activity, AMARE
Method: as §1, §2, §3, §4, §5, §6
The evaluation for the damage on undesired weeds caused by the chemical compositions was carried out using a scale from 0 to 100%, compared to the untreated control plants. […]
as §9

[3] = test system: ANTAR (Anthemis arvensis); experiment: Greenhouse preemergence herbicidal activity, ANTAR
Method: as §1, §2, §3, §4, §5, §6, §7, §8, §9

[4] = test system: AVEFA (Avena fatua); experiment: Greenhouse preemergence herbicidal activity, AVEFA
Method: as §1, §2, §3, §4, §5, §6, §7, §8, §9

[5] = test system: CHEAL (Chenopodium album); experiment: Greenhouse preemergence herbicidal activity, CHEAL
Method: as §1, §2, §3, §4, §5, §6, §7, §8, §9

[6] = test system: GALAP (Galium aparine); experiment: Greenhouse preemergence herbicidal activity, GALAP
Method: as §1, §2, §3, §4, §5, §6, §7, §8, §9

[7] = test system: GERDI (Geranium dissectum); experiment: Greenhouse preemergence herbicidal activity, GERDI
Method: as §1, §2, §3, §4, §5, §6, §7, §8, §9

[8] = test system: LOLMU (Lolium multiflorum); experiment: Greenhouse preemergence herbicidal activity, LOLMU
Method: as §1, §2, §3, §4, §5, §6, §7, §8, §9

[9] = test system: POLCO (Polygonum convolvulus); experiment: Greenhouse preemergence herbicidal activity, POLCO
Method: as §1, §2, §3, §4, §5, §6, §7, §8, §9

[10] = test system: STEME (Stellaria media); experiment: Greenhouse preemergence herbicidal activity, STEME
Method: as §1, §2, §3, §4, §5, §6, §7, §8, §9

[11] = test system: AMARE (Amaranthus retroflexus); experiment: Greenhouse postemergence herbicidal activity, AMARE
Method: as §1
(§10) For the post emergence treatment, the plants were first grown to the 2 leaf station (GS 12). Here, the herbicidal compositions were suspended or emulsified in water as distribution medium and sprayed using finely distributing nozzels.
as §3, §4, §5
(§11) In the following experiments, the herbicidal activity for the individual herbicidal compositions (solo and mixture applications) was assessed 20 days after treatment (DAT). […]
as §9

[12] = test system: ANTAR (Anthemis arvensis); experiment: Greenhouse postemergence herbicidal activity, ANTAR
Method: as §1, §10, §3, §4, §5, §6, §7, §8, §9

[13] = test system: AVEFA (Avena fatua); experiment: Greenhouse postemergence herbicidal activity, AVEFA
Method: as §1, §10, §3, §4, §5, §6, §7, §8, §9

[14] = test system: CHEAL (Chenopodium album); experiment: Greenhouse postemergence herbicidal activity, CHEAL
Method: as §1, §10, §3, §4, §5, §6, §7, §8, §9

[15] = test system: LOLMU (Lolium multiflorum); experiment: Greenhouse postemergence herbicidal activity, LOLMU
Method: as §1, §10, §3, §4, §5, §6, §7, §8, §9

[16] = test system: POLCO (Polygonum convolvulus); experiment: Greenhouse postemergence herbicidal activity, POLCO
Method: as §1, §10, §3, §4, §5, §11, §9

[17] = test system: SORHA (Sorghum halepense); experiment: Greenhouse postemergence herbicidal activity, SORHA
Method: as §1, §10, §3, §4, §5, §11, §9

[18] = test system: STEME (Stellaria media); experiment: Greenhouse postemergence herbicidal activity, STEME
Method: as §1, §10, §3, §4, §5, §6, §7, §8, §9

[19] = pyroxasulfone solo 11.25 g ai/ha
[20] = pyroxasulfone solo 22.5 g ai/ha

Cn1nc(C(F)(F)F)c(CS(=O)(=O)C2=NOC(C)(C)C2)c1OC(F)F [pyroxasulfone, 3-[5-(difluoromethoxy)-1-methyl-3-(trifluoromethyl)pyrazol-4-ylmethylsulfonyl]-4,5-dihydro-5,5-dimethyl-1,2-oxazole]
herbicidal activity ([1]; pyroxasulfone solo 10 g ai/ha): 0%
herbicidal activity ([1]; pyroxasulfone solo 20 g ai/ha): 30%
herbicidal activity ([1]; pyroxasulfone solo 30 g ai/ha): 50%
herbicidal activity ([1]; pyroxasulfone solo 60 g ai/ha): 50%
herbicidal activity ([1]; pyroxasulfone solo 120 g ai/ha): 98%
herbicidal activity ([2]; pyroxasulfone solo 10 g ai/ha): 95%
herbicidal activity ([3]; pyroxasulfone solo 15 g ai/ha): 20%
herbicidal activity ([3]; pyroxasulfone solo 20 g ai/ha): 60%
herbicidal activity ([3]; pyroxasulfone solo 30 g ai/ha): 85%
herbicidal activity ([3]; pyroxasulfone solo 40 g ai/ha): 70%
herbicidal activity ([3]; pyroxasulfone solo 60 g ai/ha): 95%
herbicidal activity ([3]; pyroxasulfone solo 80 g ai/ha): 75%
herbicidal activity ([4]; pyroxasulfone solo 10 g ai/ha): 60%
herbicidal activity ([4]; pyroxasulfone solo 15 g ai/ha): 65%
herbicidal activity ([4]; pyroxasulfone solo 20 g ai/ha): 75%
herbicidal activity ([4]; pyroxasulfone solo 30 g ai/ha): 80%
herbicidal activity ([4]; pyroxasulfone solo 40 g ai/ha): 80%
herbicidal activity ([4]; pyroxasulfone solo 60 g ai/ha): 95%
herbicidal activity ([5]; pyroxasulfone solo 10 g ai/ha): 50%
herbicidal activity ([5]; pyroxasulfone solo 20 g ai/ha): 90%
herbicidal activity ([6]; pyroxasulfone solo 10 g ai/ha): 30%
herbicidal activity ([6]; pyroxasulfone solo 15 g ai/ha): 0%
herbicidal activity ([6]; pyroxasulfone solo 20 g ai/ha): 70%
herbicidal activity ([6]; pyroxasulfone solo 80 g ai/ha): 98%
herbicidal activity ([7]; pyroxasulfone solo 30 g ai/ha): 75%
herbicidal activity ([7]; pyroxasulfone solo 40 g ai/ha): 75%
herbicidal activity ([8]; pyroxasulfone solo 10 g ai/ha): 80%
herbicidal activity ([8]; pyroxasulfone solo 15 g ai/ha): 98%
herbicidal activity ([9]; pyroxasulfone solo 15 g ai/ha): 0%
herbicidal activity ([9]; pyroxasulfone solo 20 g ai/ha): 0%
herbicidal activity ([9]; pyroxasulfone solo 30 g ai/ha): 20%
herbicidal activity ([9]; pyroxasulfone solo 60 g ai/ha): 80%
herbicidal activity ([9]; pyroxasulfone solo 80 g ai/ha): 80%
herbicidal activity ([9]; pyroxasulfone solo 120 g ai/ha): 90%
herbicidal activity ([10]; pyroxasulfone solo 10 g ai/ha): 75%
herbicidal activity ([10]; pyroxasulfone solo 15 g ai/ha): 98%
herbicidal activity ([10]; pyroxasulfone solo 30 g ai/ha): 98%
herbicidal activity ([11]; pyroxasulfone solo 45 g ai/ha): 25%
herbicidal activity ([12]; pyroxasulfone solo 15 g ai/ha): 40%
herbicidal activity ([12]; pyroxasulfone solo 60 g ai/ha): 90%
herbicidal activity [13, 19]: 50%
herbicidal activity [13, 20]: 50%
herbicidal activity [14, 19]: 80%
herbicidal activity ([14]; pyroxasulfone solo 15 g ai/ha): 85%
herbicidal activity [14, 20]: 65%
herbicidal activity ([14]; pyroxasulfone solo 45 g ai/ha): 85%
herbicidal activity ([14]; pyroxasulfone solo 90 g ai/ha): 95%
herbicidal activity ([14]; pyroxasulfone solo 120 g ai/ha): 95%
herbicidal activity [15, 19]: 55%
herbicidal activity ([15]; pyroxasulfone solo 15 g ai/ha): 70%
herbicidal activity [15, 20]: 55%
herbicidal activity ([16]; pyroxasulfone solo 45 g ai/ha): 80%
herbicidal activity [17, 19]: 70%
herbicidal activity [18, 19]: 0%
herbicidal activity ([18]; pyroxasulfone solo 15 g ai/ha): 40%
herbicidal activity [18, 20]: 0%
herbicidal activity ([18]; pyroxasulfone solo 45 g ai/ha): 45%
herbicidal activity ([18]; pyroxasulfone solo 60 g ai/ha): 80%

Cc1ccccc1CO[C@@H]1C[C@@]2(C(C)C)CC[C@]1(C)O2 (racemic) [herbicide A, (±)-2-exo-(2-Methylbenzyloxy)-1-methyl-4-isopropyl-7-oxabicyclo[2.2.1]heptane]
herbicidal activity ([1]; herbicide A solo 37.5 g ai/ha): 0%
herbicidal activity ([1]; herbicide A solo 75 g ai/ha): 0%
herbicidal activity ([1]; herbicide A solo 150 g ai/ha): 0%
herbicidal activity ([1]; herbicide A solo 300 g ai/ha): 0%
herbicidal activity ([2]; herbicide A solo 25 g ai/ha): 0%
herbicidal activity ([3]; herbicide A solo 25 g ai/ha): 0%
herbicidal activity ([3]; herbicide A solo 37.5 g ai/ha): 0%
herbicidal activity ([3]; herbicide A solo 50 g ai/ha): 0%
herbicidal activity ([3]; herbicide A solo 75 g ai/ha): 0%
herbicidal activity ([3]; herbicide A solo 100 g ai/ha): 0%
herbicidal activity ([3]; herbicide A solo 150 g ai/ha): 0%
herbicidal activity ([3]; herbicide A solo 200 g ai/ha): 0%
herbicidal activity ([3]; herbicide A solo 300 g ai/ha): 0%
herbicidal activity ([4]; herbicide A solo 37.5 g ai/ha): 0%
herbicidal activity ([4]; herbicide A solo 50 g ai/ha): 0%
herbicidal activity ([4]; herbicide A solo 75 g ai/ha): 20%
herbicidal activity ([4]; herbicide A solo 150 g ai/ha): 40%
herbicidal activity ([5]; herbicide A solo 25 g ai/ha): 20%
herbicidal activity ([5]; herbicide A solo 37.5 g ai/ha): 20%
herbicidal activity ([5]; herbicide A solo 50 g ai/ha): 30%
herbicidal activity ([5]; herbicide A solo 75 g ai/ha): 20%
herbicidal activity ([6]; herbicide A solo 25 g ai/ha): 0%
herbicidal activity ([6]; herbicide A solo 50 g ai/ha): 0%
herbicidal activity ([6]; herbicide A solo 200 g ai/ha): 30%
herbicidal activity ([6]; herbicide A solo 300 g ai/ha): 30%
herbicidal activity ([7]; herbicide A solo 50 g ai/ha): 50%
herbicidal activity ([7]; herbicide A solo 100 g ai/ha): 50%
herbicidal activity ([7]; herbicide A solo 150 g ai/ha): 50%
herbicidal activity ([8]; herbicide A solo 25 g ai/ha): 50%
herbicidal activity ([8]; herbicide A solo 37.5 g ai/ha): 60%
herbicidal activity ([9]; herbicide A solo 37.5 g ai/ha): 0%
herbicidal activity ([9]; herbicide A solo 50 g ai/ha): 0%
herbicidal activity ([9]; herbicide A solo 75 g ai/ha): 0%
herbicidal activity ([9]; herbicide A solo 100 g ai/ha): 0%
herbicidal activity ([9]; herbicide A solo 200 g ai/ha): 0%
herbicidal activity ([9]; herbicide A solo 300 g ai/ha): 0%
herbicidal activity ([10]; herbicide A solo 25 g ai/ha): 20%
herbicidal activity ([10]; herbicide A solo 37.5 g ai/ha): 0%
herbicidal activity ([10]; herbicide A solo 50 g ai/ha): 20%
herbicidal activity ([10]; herbicide A solo 75 g ai/ha): 20%
herbicidal activity ([11]; herbicide A solo 250 g ai/ha): 25%
herbicidal activity ([12]; herbicide A solo 62.5 g ai/ha): 40%
herbicidal activity ([12]; herbicide A solo 175 g ai/ha): 90%
herbicidal activity ([12]; herbicide A solo 250 g ai/ha): 90%
herbicidal activity ([13]; herbicide A solo 43.75 g ai/ha): 25%
herbicidal activity ([13]; herbicide A solo 87.5 g ai/ha): 30%
herbicidal activity ([13]; herbicide A solo 125 g ai/ha): 60%
herbicidal activity ([14]; herbicide A solo 62.5 g ai/ha): 30%
herbicidal activity ([14]; herbicide A solo 87.5 g ai/ha): 65%
herbicidal activity ([14]; herbicide A solo 125 g ai/ha): 50%
herbicidal activity ([14]; herbicide A solo 175 g ai/ha): 60%
herbicidal activity ([14]; herbicide A solo 500 g ai/ha): 75%
herbicidal activity ([15]; herbicide A solo 43.75 g ai/ha): 0%
herbicidal activity ([15]; herbicide A solo 62.5 g ai/ha): 0%
herbicidal activity ([15]; herbicide A solo 87.5 g ai/ha): 0%
herbicidal activity ([15]; herbicide A solo 125 g ai/ha): 0%
herbicidal activity ([16]; herbicide A solo 250 g ai/ha): 40%
herbicidal activity ([17]; herbicide A solo 62.5 g ai/ha): 40%
herbicidal activity ([18]; herbicide A solo 43.75 g ai/ha): 0%
herbicidal activity ([18]; herbicide A solo 62.5 g ai/ha): 25%
herbicidal activity ([18]; herbicide A solo 125 g ai/ha): 65%
herbicidal activity ([18]; herbicide A solo 175 g ai/ha): 40%
herbicidal activity ([18]; herbicide A solo 250 g ai/ha): 70%
